Experimental data from patent publication US20050043371A1, “Aminoalcohol derivatives and their use as beta 3 adrenergic agonists” (Fujisawa Pharmaceutical Co. Ltd., priority 1999, published 2005).

Experiments:
anesthetized dog = test: Effect on the increase in intravesical pressure induced by carbachol in anesthetized dog; assay type: in vivo; settings: 0.01 mg/kg injected intravenously 5 minutes before carbachol (1.8 μg/kg); female Beagle dogs under halothane anesthesia; N = 3; P < 0.01 vs Control (4.5 ± 0.3)
Description: Effect on the increase in intravesical pressure induced by carbachol in anesthetized dog
Female Beagle dogs weighing 8.0-15.0 kg were fasted for 24 hours and maintained under halothane anesthesia. A 12F Foley catheter was lubricated with water soluble jelly, inserted into the urethral orifice and advanced approximately 10 cm until the balloon tip was placed well inside the bladder. The balloon was then inflated with 5 ml of room air and catheter slowly withdrawn just part the first resistance that is felt at the bladder neck. Urine was completely drained out through the catheter, and 30 ml of biological saline was infused. The catheter was connected to pressure transducer, and intravesical pressure was continuously recorded. The test compound was injected intravenously at 5 minutes before the administration of carbachol (1.8 μg/kg).

SMILES | melting point | Increase in intravescial pressure (mmHg) (anesthetized dog)
COc1ccc(C(C[C@H](C)NC[C@H](O)COc2ccccc2)c2ccc(OC)cc2)cc1.O=C(O)C(=O)O | 79 to 94 °C | –
CC(CC(c1ccc(O)cc1)c1ccc(O)cc1)NC[C@H](O)COc1ccccc1.Cl (mixture of isomers) [Test Compound (1), (2S)-1-[[(2RS)-4,4-bis(4-hydroxyphenyl)-2-butyl]amino]-3-phenoxy-2-propanol hydrochloride] [listing 1 of 2 here] | – | 2.5 ± 0.3
CC(CC(c1ccc(O)cc1)c1ccc(O)cc1)NC[C@H](O)COc1ccccc1.Cl (mixture of isomers) [Test Compound (1), (2S)-1-[[(2RS)-4,4-bis(4-hydroxyphenyl)-2-butyl]amino]-3-phenoxy-2-propanol hydrochloride] [listing 2 of 2 here] | 73 °C (dec.) | –
COc1ccc(C(C[C@@H](C)NC[C@H](O)COc2ccccc2)c2ccc(OC)cc2)cc1.O=C(O)C(=O)O | 121 to 123 °C | –
